Key:
Type in all cases: in vivo
[1] = system: Johnsongrass (Sorghum halepense, SORHA); assay: Post-emerge greenhouse herbicide test, phytotoxicity rating; settings: 14 days after application
How it was run: (§1)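 Compounds in acetone with 0.25% v/v non-ionic surfactant were track-sprayed at 187 l/ha over plants at the 2-3 leaf stage, at 63 to 1000 g ai/ha. Pots were bottom-watered. Injury was scored visually 14 days later on a 0-100 scale, where 0 is no damage and 100 is complete plant death.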

[2] = system: redroot pigweed (Amaranthus retroflexus, AMARE); assay: as above; settings: 14 days after application
How it was run: as §1

[3] = system: large crabgrass (Digitaria sanguinalis, DIGSA); assay: as above; settings: 14 days after application
How it was run: as §1

[4] = system: sicklepod (Cassia obtusifolia, CASOB); assay: as above; settings: 14 days after application
How it was run: as §1

[5] = system: velvetleaf (Abutilon theophrasti, ABUTH); assay: as above; settings: 14 days after application
How it was run: as §1

[6] = system: green foxtail (Setaria viridis, SETVI); assay: as above; settings: 14 days after application
How it was run: as §1

[7] = system: lambsquarters (Chenopodium album, CHEAL); assay: as above; settings: 14 days after application
How it was run: as §1

[8] = system: barnyardgrass (Echinochloa crusgalli, ECHCG); assay: as above; settings: 14 days after application
How it was run: as §1

[9] = system: ivyleaf morningglory (Ipomoea hederacea, IPOHE); assay: as above; settings: 14 days after application
How it was run: as §1

[10] = system: Johnsongrass (Sorghum halepense, SORHA); assay: Pre-emerge greenhouse herbicide test, phytotoxicity rating; settings: 14 days after application, rating scale 0-100
How it was run: (§2)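 Seeds sown in sandy loam mix one day before track-sprayer application of compounds in acetone at 125–1000 g ai/ha (187 l/ha), then surface-watered to incorporate and bottom-watered. Visual rating 14 days after application on a 0–100 scale (0 = no damage, 100 = all plants dead).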

[11] = system: redroot pigweed (Amaranthus retroflexus, AMARE); assay: as above; settings: 14 days after application, rating scale 0-100
How it was run: as §2

[12] = system: common ragweed (Ambrosia artemisiifolia L., AMBEL); assay: as above; settings: 14 days after application, rating scale 0-100
How it was run: as §2

[13] = system: large crabgrass (Digitaria sanguinalis, DIGSA); assay: as above; settings: 14 days after application, rating scale 0-100
How it was run: as §2

[14] = system: sicklepod (Cassia obtusifolia, CASOB); assay: as above; settings: 14 days after application, rating scale 0-100
How it was run: as §2

[15] = system: velvetleaf (Abutilon theophrasti, ABUTH); assay: as above; settings: 14 days after application, rating scale 0-100
How it was run: as §2

[16] = system: green foxtail (Setaria viridis, SETVI); assay: as above; settings: 14 days after application, rating scale 0-100
How it was run: as §2

[17] = system: lambsquarters (Chenopodium album, CHEAL); assay: as above; settings: 14 days after application, rating scale 0-100
How it was run: as §2

[18] = system: barnyardgrass (Echinochloa crusgalli, ECHCG); assay: as above; settings: 14 days after application, rating scale 0-100
How it was run: as §2

[19] = system: ivyleaf morningglory (Ipomoea hederacea, IPOHE); assay: as above; settings: 14 days after application, rating scale 0-100
How it was run: as §2

[20] = system: field corn (Zea mays L., var. Dekalb 535, CORN); assay: Post-emerge greenhouse test, crop damage rating; settings: 14 days after application
How it was run: as §1

[21] = system: upland rice (Oryza sp., var.Tebonnet, RICE); assay: Post-emerge greenhouse test, crop damage rating; settings: 14 days after application
How it was run: as §1

[22] = system: field corn (Zea mays L., var. Dekalb 535, CORN); assay: Pre-emerge greenhouse test, crop damage rating; settings: 14 days after application, rating scale 0-100
How it was run: as §2

[23] = system: upland rice (Oryza sp., var.Tebonnet, RICE); assay: Pre-emerge greenhouse test, crop damage rating; settings: 14 days after application, rating scale 0-100
How it was run: as §2

[24] = system: common ragweed (Ambrosia artemisiifolia L., AMBEL); assay: Post-emerge greenhouse herbicide test, phytotoxicity rating; settings: 14 days after application
How it was run: as §1

[25] = system: soybean (Glycine max L., var. Pella 86, SOY); assay: Pre-emerge greenhouse test, crop damage rating; settings: 14 days after application, rating scale 0-100
How it was run: as §2

[26] = system: soybean (Glycine max L., var. Pella 86, SOY); assay: Post-emerge greenhouse test, crop damage rating; settings: 14 days after application
How it was run: as §1

## Cn1nc(-c2cc(Oc3ncccn3)c(Cl)cc2F)c(Cl)c1C(F)(F)F [Compound 1-7]
[1]; 63 g al/ha
  SORHA phytotoxicity rating (0-100): 90
[1]; 500 g al/ha
  SORHA phytotoxicity rating (0-100): 100
[2]; 63 g al/ha
  AMARE phytotoxicity rating (0-100): 100
[2]; 500 g al/ha
  AMARE phytotoxicity rating (0-100): 100
[3]; 63 g al/ha
  DIGSA phytotoxicity rating (0-100): 90
[3]; 500 g al/ha
  DIGSA phytotoxicity rating (0-100): 100
[4]; 500 g al/ha
  CASOB phytotoxicity rating (0-100): 100
[5]; 63 g al/ha
  ABUTH phytotoxicity rating (0-100): 100
[5]; 500 g al/ha
  ABUTH phytotoxicity rating (0-100): 100
[6]; 63 g al/ha
  SETVI phytotoxicity rating (0-100): 100
[6]; 500 g al/ha
  SETVI phytotoxicity rating (0-100): 100
[7]; 63 g al/ha
  CHEAL phytotoxicity rating (0-100): 100
[7]; 500 g al/ha
  CHEAL phytotoxicity rating (0-100): 100
[8]; 63 g al/ha
  ECHCG phytotoxicity rating (0-100): 100
[8]; 500 g al/ha
  ECHCG phytotoxicity rating (0-100): 100
[9]; 63 g al/ha
  IPOHE phytotoxicity rating (0-100): 100
[9]; 500 g al/ha
  IPOHE phytotoxicity rating (0-100): 100
[10]; 125 g ai/ha
  phytotoxicity rating SORHA: 100
[10]; 500 g ai/ha
  phytotoxicity rating SORHA: 100
[11]; 125 g ai/ha
  phytotoxicity rating AMARE: 100
[11]; 500 g ai/ha
  phytotoxicity rating AMARE: 100
[12]; 125 g ai/ha
  phytotoxicity rating AMBEL: 100
[12]; 500 g ai/ha
  phytotoxicity rating AMBEL: 100
[13]; 125 g ai/ha
  phytotoxicity rating DIGSA: 100
[13]; 500 g ai/ha
  phytotoxicity rating DIGSA: 100
[14]; 125 g ai/ha
  phytotoxicity rating CASOB: 95
[14]; 500 g ai/ha
  phytotoxicity rating CASOB: 90
[15]; 125 g ai/ha
  phytotoxicity rating ABUTH: 90
[15]; 500 g ai/ha
  phytotoxicity rating ABUTH: 99
[16]; 125 g ai/ha
  phytotoxicity rating SETVI: 100
[16]; 500 g ai/ha
  phytotoxicity rating SETVI: 100
[17]; 125 g ai/ha
  phytotoxicity rating CHEAL: 100
[17]; 500 g ai/ha
  phytotoxicity rating CHEAL: 100
[18]; 125 g ai/ha
  phytotoxicity rating ECHCG: 100
[18]; 500 g ai/ha
  phytotoxicity rating ECHCG: 100
[19]; 125 g ai/ha
  phytotoxicity rating IPOHE: 40
[19]; 500 g ai/ha
  phytotoxicity rating IPOHE: 70
[20]; 63 g al/ha
  CORN crop damage rating (0-100): 90
[20]; 500 g al/ha
  CORN crop damage rating (0-100): 70
[21]; 63 g al/ha
  RICE crop damage rating (0-100): 100
[21]; 500 g al/ha
  RICE crop damage rating (0-100): 80
[22]; 125 g ai/ha
  crop damage rating CORN: 40
[22]; 500 g ai/ha
  crop damage rating CORN: 70
[23]; 125 g ai/ha
  crop damage rating RICE: 70
[23]; 500 g ai/ha
  crop damage rating RICE: 90
[24]; 63 g al/ha
  AMBEL phytotoxicity rating (0-100): 95
[24]; 500 g al/ha
  AMBEL phytotoxicity rating (0-100): 100
[25]; 125 g ai/ha
  crop damage rating SOY: 0
[25]; 500 g ai/ha
  crop damage rating SOY: 0
[26]; 63 g al/ha
  SOY crop damage rating (0-100): 100
[26]; 500 g al/ha
  SOY crop damage rating (0-100): 100

## Cn1c(C(F)(F)F)nc(-c2cc(Oc3ncccc3[N+](=O)[O-])c(Cl)cc2F)c1Cl [Compound 2-1]
[1]; 63 g al/ha
  SORHA phytotoxicity rating (0-100): 0
[1]; 500 g al/ha
  SORHA phytotoxicity rating (0-100): 10
[2]; 63 g al/ha
  AMARE phytotoxicity rating (0-100): 90
[2]; 500 g al/ha
  AMARE phytotoxicity rating (0-100): 100
[3]; 63 g al/ha
  DIGSA phytotoxicity rating (0-100): 0
[3]; 500 g al/ha
  DIGSA phytotoxicity rating (0-100): 20
[4]; 63 g al/ha
  CASOB phytotoxicity rating (0-100): 0
[4]; 500 g al/ha
  CASOB phytotoxicity rating (0-100): 30
[5]; 63 g al/ha
  ABUTH phytotoxicity rating (0-100): 40
[5]; 500 g al/ha
  ABUTH phytotoxicity rating (0-100): 85
[6]; 63 g al/ha
  SETVI phytotoxicity rating (0-100): 30
[6]; 500 g al/ha
  SETVI phytotoxicity rating (0-100): 65
[7]; 63 g al/ha
  CHEAL phytotoxicity rating (0-100): 80
[7]; 500 g al/ha
  CHEAL phytotoxicity rating (0-100): 99
[8]; 63 g al/ha
  ECHCG phytotoxicity rating (0-100): 0
[8]; 500 g al/ha
  ECHCG phytotoxicity rating (0-100): 30
[9]; 63 g al/ha
  IPOHE phytotoxicity rating (0-100): 60
[9]; 500 g al/ha
  IPOHE phytotoxicity rating (0-100): 65
[10]; 125 g ai/ha
  phytotoxicity rating SORHA: 0
[10]; 500 g ai/ha
  phytotoxicity rating SORHA: 30
[11]; 125 g ai/ha
  phytotoxicity rating AMARE: 100
[11]; 500 g ai/ha
  phytotoxicity rating AMARE: 100
[12]; 125 g ai/ha
  phytotoxicity rating AMBEL: 0
[12]; 500 g ai/ha
  phytotoxicity rating AMBEL: 50
[13]; 125 g ai/ha
  phytotoxicity rating DIGSA: 0
[13]; 500 g ai/ha
  phytotoxicity rating DIGSA: 70
[14]; 125 g ai/ha
  phytotoxicity rating CASOB: 0
[14]; 500 g ai/ha
  phytotoxicity rating CASOB: 30
[15]; 125 g ai/ha
  phytotoxicity rating ABUTH: 0
[15]; 500 g ai/ha
  phytotoxicity rating ABUTH: 50
[16]; 125 g ai/ha
  phytotoxicity rating SETVI: 90
[16]; 500 g ai/ha
  phytotoxicity rating SETVI: 99
[17]; 125 g ai/ha
  phytotoxicity rating CHEAL: 60
[17]; 500 g ai/ha
  phytotoxicity rating CHEAL: 100
[18]; 125 g ai/ha
  phytotoxicity rating ECHCG: 0
[18]; 500 g ai/ha
  phytotoxicity rating ECHCG: 20
[19]; 125 g ai/ha
  phytotoxicity rating IPOHE: 10
[19]; 500 g ai/ha
  phytotoxicity rating IPOHE: 100
[20]; 63 g al/ha
  CORN crop damage rating (0-100): 15
[20]; 500 g al/ha
  CORN crop damage rating (0-100): 20
[21]; 63 g al/ha
  RICE crop damage rating (0-100): 0
[21]; 500 g al/ha
  RICE crop damage rating (0-100): 20
[22]; 125 g ai/ha
  crop damage rating CORN: 0
[22]; 500 g ai/ha
  crop damage rating CORN: 0
[23]; 125 g ai/ha
  crop damage rating RICE: 0
[23]; 500 g ai/ha
  crop damage rating RICE: 0
[24]; 63 g al/ha
  AMBEL phytotoxicity rating (0-100): 10
[24]; 500 g al/ha
  AMBEL phytotoxicity rating (0-100): 40
[25]; 125 g ai/ha
  crop damage rating SOY: 0
[25]; 500 g ai/ha
  crop damage rating SOY: 70
[26]; 63 g al/ha
  SOY crop damage rating (0-100): 50
[26]; 500 g al/ha
  SOY crop damage rating (0-100): 75

— patent publication US6479435B1, “Diaryl ethers and processes for their preparation and herbicidal and desiccant compositions containing them” (ISK Americas Incorporated, priority 1997, dated 2002)
